Results reported in patent US9249148B2, “Tris(hetero)arylpyrazoles and use thereof” (AICURIS GMBH & CO. KG, priority 2012, dated 2016).

What was measured:
Type in all cases: cell-based
HIV-1LAI wildtype = test: alamarBlue Viability Assay with HIV-1LAI-infected MT4 cells; conditions: Human immunodeficiency virus 1, 10% FBS
Description: For starting a 96-well MTP, 3 million PBLs are pelleted, suspended in 1 ml RPMI 1640 medium/10% FBS/2 mM L-glutamine/1% Pen/Strep and incubated for 2 hours at 37° C. with a suitable quantity of the relevant HIV-1LAI (NIH AIDS Research & Reference Reagent Program, Germantown, USA) (pellet infection). Non-adsorbed viruses are then washed out, and the infected cells pelleted again and suspended in 18 ml RPMI 1640 medium/10% FBS/2 mM L-glutamine/1% Pen/Strep/Interleukin-2 (40 U/ml). From this, 180 μl per well is pipetted into a 96-well MTP to 20 μl of test substance at a suitable level of dilution. Alternatively, the HIV is added after preparation of the substance dilutes in the MTP together with the cells, and is not washed out (supernatant infection). In order to avoid edge effects, the edge wells of the MTP are not used for substance dilutions. The second vertical row of the MTP contains only infected cells (virus control) and the eleventh vertical row only non-infected cells (cell control), each in RPMI 1640 medium/10% FBS/2 mM L-glutamine/1% Pen/Strep/Interleukin-2 (40 U/ml). The remaining wells of the MTP contain the compounds in accordance with the invention in various concentrations, starting from the third vertical row, from which the test substances are diluted in 3-step sequences up to the tenth vertical row by a factor of 3^7. The test substances are dissolved in DMSO; the final DMSO concentration in the test preparation is 1%. The test samples are incubated for 5 days at 37° C./5% CO2. After 5 to 7 days, 50 μl of cell-free supernatant is removed from each well to determine its p24 content using p24 ELISA (HIV-1 p24CA Antigen Capture Assay Kit, NCI-Frederick Cancer Research and Development Center, Frederick, USA). From the resulting values of the photometric analysis (450/620 nm), the EC50 values of the test substances are determined from the resulting dose-response curves using the Prism4 software (GraphPad, San Diego, Calif.) as the concentration of treated infected cells, where the p24 quantity is 50% of the untreated infected cells.
Alternatively, MT4 cells are used in place of PBLs for testing the test substances. HIV-1LAI-infected MT4 cells (MOI 0.01, supernatant infection) are incubated in accordance with the procedure described above in RPMI 1640 medium using 2% or 10% FKS/2 mM L-glutamine/1% Pen/Strep in the presence of the test substances for 5 days at 37° C./5% CO2 (10 μl diluted substance and 90 μl cells/virus per well). 10 μl alamarBlue (Invitrogen, Karlsruhe, Germany) is then added per well and the MTPs are incubated for 3 hours at 37° C. before fluorimetric evaluation is performed (544/590 nm). Using quattroWorkflow software (Quattroresearch, Martinsried, Germany), the EC50 values of the test substances are determined from the resulting dose-response curves as the concentration of treated infected cells in which the fluorescence is 50% of that of the untreated, non-infected cells.

HIV-1NL4-3 K103N-Y181C = test: Luminescence Reduction Assay, luciferase reporter virus with resistance mutations in MT4 cells; conditions: Human immunodeficiency virus 1, MT4, read-out: EC50 (μM) MT4 cells HIV-1NL4-3 K103N-Y181C 2% FBS
Source text: (§1) For this assay, HIV-1NL4-3 reporter viruses are used which carry the luciferase164 gene (lu164) in place of the nef gene. The viruses are generated by transfection of 293T cells with the corresponding proviral pNL4-3 plasmid (Lipofectamine Reagent, Invitrogen, Karlsruhe, Germany). Starting from the proviral plasmid DNA, viruses with defined resistance mutations (single or combined) are produced in the reverse transcriptase gene using the “QuikChange II XL Site-Directed Mutagenesis Kit” (Stratagene, Cedar Creek, Tex., USA). Resistance mutations include, among others: L74V, A98G, A98S, L100I, K101E, K103N, V106A, V106I, V106M, V108I, V108A, E138K, V179I, V179D, V179E, Y181C, Y181I, Y188L, G190A, G1905, H221Y, P225H, F227C, F227L, F227V, M230I, M230L, L234I, P236L, N348I, T369A, T369I, T369V. MT4 cells infected with these reporter viruses (NIH AIDS Research and Reference Reagent Program) secrete luciferase into the medium, which enables the luminometric quantification of the virus replication.
(§2) For starting a 96-well MTP, 3 million MT4 cells are pelleted, suspended in 1 ml RPMI 1640 medium without phenol red (Invitrogen, Karlsruhe, Germany)/10% FBS/2 mM L-glutamine/1% Pen/Strep (Invitrogen, Karlsruhe, Germany), and incubated for 2 hours at 37° C. with a suitable quantity of the relevant HIV-1NL4-3 reporter virus (pellet infection). Non-adsorbed viruses are then washed out, and the infected cells are pelleted again and suspended in 8 ml RPMI 1640 medium without phenol red/2% or 10% FBS/2 mM L-glutamine/1% Pen/Strep. From this, 90 μl per well is pipetted into a white 96-well MTP to 10 μl of test substance at a suitable level of dilution. In order to avoid edge effects, the edge wells of the MTP are not used for substance dilutions. The second vertical row of the MTP contains only infected cells (virus control) and the eleventh vertical row only non-infected cells (cell control), each in RPMI 1640 medium without phenol red/2% or 10% FBS/2 mM L-glutamine/1% Pen/Strep. The remaining wells of the MTP contain the compounds in accordance with the invention in various concentrations, starting from the third vertical row, from which the test substances are diluted in 3-step sequences up to the tenth vertical row by a factor of 3^7. The test substances are dissolved in DMSO; the final DMSO concentration in the test formulation is 1%.

HIV-1NL4-3 wildtype = test: Luminescence Reduction Assay, luciferase reporter virus in MT4 cells; conditions: Human immunodeficiency virus 1, MT4, read-out: EC50 (μM) MT4 cells HIV-1NL4-3 wildtype 2% FBS
Source text: as §1, §2

| SMILES | EC50 (HIV-1LAI wildtype) [µM] | EC50 (HIV-1NL4-3 K103N-Y181C) [µM] | EC50 (HIV-1NL4-3 wildtype) [µM] |
| --- | --- | --- | --- |
| O=C1NCc2c1ccnc2-c1cc(-c2cc(F)cc(Cl)c2)n(-c2ccc(F)c(Cl)c2)n1 [Example 1, 4-[1-(3-chloro-4-fluorophenyl)-5-(3-chloro-5-fluorophenyl)-1H-pyrazole-3-yl]-2,3-dihydro-1H-pyrrolo[3,4-c]pyridine-1-one] | 0.0097 | 0.004 | 0.0015 |
| O=C1NCc2c1ccnc2-c1cc(-c2cc(F)cc(Cl)c2)n(-c2cccnc2)n1 [Example 2, 4-[5-(3-chloro-5-fluorophenyl)-1-(pyridine-3-yl)-1H-pyrazole-3-yl]-2,3-dihydro-1H-pyrrolo[3,4-c]pyridine-1-one] | 0.0063 | 0.0132 | 0.0013 |
| O=C1NCc2c1cccc2-c1cc(-c2cc(F)cc(Cl)c2)n(-c2ccc(F)c(Cl)c2)n1 [Example 3, 4-[1-(3-chloro-4-fluorophenyl)-5-(3-chloro-5-fluorophenyl)-1H-pyrazole-3-yl]-2,3-dihydro-1H-isoindole-1-one] | 0.0586 | 0.0289 | 0.006 |
| O=C1NCc2c1cccc2-c1cc(-c2cc(F)cc(Cl)c2)n(-c2cccnc2)n1 [Example 4, 4-[5-(3-chloro-5-fluorophenyl)-1-(pyridine-3-yl)-1H-pyrazole-3-yl]-2,3-dihydro-1H-isoindole-1-one] | 0.0155 | 0.042 | 0.0055 |
| O=C1NCc2c1ccnc2-c1cc(-c2cc(F)cc(OC(F)(F)F)c2)n(-c2ccc(F)c(Cl)c2)n1 [Example 5, 4-{1-(3-chloro-4-fluorophenyl)-5-[3-fluoro-5-(trifluoromethoxy)phenyl]-1H-pyrazole-3-yl}-2,3-dihydro-1H-pyrrolo[3,4-c]pyridine-1-one] | 0.15 | 0.0117 | 0.011 |
| O=C1NCc2c1ccnc2-c1cc(-c2cc(F)cc(OC(F)(F)F)c2)n(-c2cccnc2)n1 [Example 6, 4-{5-[3-fluoro-5-(trifluoromethoxy)phenyl]-1-(pyridine-3-yl)-1H-pyrazole-3-yl}-2,3-dihydro-1H-pyrrolo[3,4-c]pyridine-1-one] | 0.0137 | 0.0083 | 0.0024 |
| O=C1NCc2c1cccc2-c1cc(-c2cc(F)cc(OC(F)(F)F)c2)n(-c2cccnc2)n1 [Example 7, 4-{5-[3-fluoro-5-(trifluoromethoxy)phenyl]-1-(pyridine-3-yl)-1H-pyrazole-3-yl}-2,3-dihydro-1H-isoindole-1-one] | 0.0512 | 0.0206 | 0.0107 |
| O=C1NC(=O)c2c1cccc2-c1cc(-c2cc(F)cc(OC(F)(F)F)c2)n(-c2cccnc2)n1 [Example 8, 4-{5-[3-fluoro-5-(trifluoromethoxy)phenyl]-1-(pyridine-3-yl)-1H-pyrazole-3-yl}-1H-isoindole-1,3(2H)-dione] | > 3.3 | > 3.3 | 0.643 |
| O=C1NCc2c1ccnc2-c1cc(-c2cc(Cl)cc(OC(F)(F)F)c2)n(-c2ccc(F)c(Cl)c2)n1 [Example 9, 4-{1-(3-chloro-4-fluorophenyl)-5-[3-chloro-5-(trifluoromethoxy)phenyl]-1H-pyrazole-3-yl}-2,3-dihydro-1H-pyrrolo[3,4-c]pyridine-1-one] | 0.0768 | 0.0176 | 0.0128 |
| O=C1NCc2c1ccnc2-c1cc(-c2cc(Cl)cc(OC(F)(F)F)c2)n(-c2cccnc2)n1 [Example 10, 4-{5-[3-chloro-5-(trifluoromethoxy)phenyl]-1-(pyridine-3-yl)-1H-pyrazole-3-yl}-2,3-dihydro-1H-pyrrolo[3,4-c]pyridine-1-one] | 0.008 | 0.0027 | 0.0012 |
| O=C1NCc2c1cccc2-c1cc(-c2cc(Cl)cc(OC(F)(F)F)c2)n(-c2cccnc2)n1 [Example 11, 4-{5-[3-chloro-5-(trifluoromethoxy)phenyl]-1-(pyridine-3-yl)-1H-pyrazole-3-yl}-2,3-dihydro-1H-isoindole-1-one] | 0.0663 | 0.024 | 0.0091 |
| O=C1NCc2c1ccnc2-c1cc(-c2cc(Br)cc(OC(F)(F)F)c2)n(-c2ccc(F)c(Cl)c2)n1 [Example 12, 4-{5-[3-bromo-5-(trifluoromethoxy)phenyl]-1-(3-chloro-4-fluorophenyl)-1H-pyrazole-3-yl}-2,3-dihydro-1H-pyrrolo[3,4-c]pyridine-1-one] | 0.0974 | 0.012 | 0.0089 |
| O=C1NCc2c1ccnc2-c1cc(-c2cc(Br)cc(OC(F)(F)F)c2)n(-c2cccnc2)n1 [Example 13, 4-{5-[3-bromo-5-(trifluoromethoxy)phenyl]-1-(pyridine-3-yl)-1H-pyrazole-3-yl}-2,3-dihydro-1H-pyrrolo[3,4-c]pyridine-1-one] | 0.0086 | 0.0025 | 0.0011 |
| O=C1NCc2c1ccnc2-c1cc(-c2cc(F)cc(OC(F)F)c2)n(-c2cccnc2)n1 [Example 14, 4-{5-[3-(difluoromethoxy)-5-fluorophenyl]-1-(pyridine-3-yl)-1H-pyrazole-3-yl}-2,3-dihydro-1H-pyrrolo[3,4-c]pyridine-1-one] | 0.0053 | 0.0097 | 0.001 |
| O=C1NCc2c1ccnc2-c1cc(-c2cc(F)cc(OC(F)F)c2)n(-c2ccc(F)c(Cl)c2)n1 [Example 15, 4-{1-(3-chloro-4-fluorophenyl)-5-[3-(difluoromethoxy)-5-fluorophenyl]-1H-pyrazole-3-yl}-2,3-dihydro-1H-pyrrolo[3,4-c]pyridine-1-one] | 0.0171 | 0.0085 | 0.0044 |
| O=C1NCc2c1ccnc2-c1cc(-c2cc(Cl)cc(OC(F)F)c2)n(-c2cccnc2)n1 [Example 16, 4-{5-[3-chloro-5-(difluoromethoxy)phenyl]-1-(pyridine-3-yl)-1H-pyrazole-3-yl}-2,3-dihydro-1H-pyrrolo[3,4-c]pyridine-1-one] | 0.0023 | 0.0026 | 0.0005 |
| O=C1NCc2c1ccnc2-c1cc(-c2cc(Cl)cc(OC(F)F)c2)n(-c2ccnc(Cl)c2)n1 [Example 17, 4-{5-[3-chloro-5-(difluoromethoxy)phenyl]-1-(2-chloropyridine-4-yl)-1H-pyrazole-3-yl}-2,3-dihydro-1H-pyrrolo[3,4-c]pyridine-1-one] | 0.0086 | 0.0049 | 0.0011 |
